Reference: a melting point compilation (Tetko et al.; mined from patent text by program, amines drawn as free bases though some values may be those of a salt)

| Compound | melting point |
| --- | --- |
| O=C(NCc1ccc(Cl)cc1)c1cnc2ccc(OCCO)cc2c1O | 246 to 248 °C |
| CCC(C)(O)CCC1C(C)(OC(C)=O)CCC2C(C)(C)CCCC21C (stereo unspecified) | 92 to 94 °C |
| COc1ccc(S(=O)(=O)N2C(=O)C(N)(c3cc(OC)ccc3OC)c3cc(Cl)ccc32)c(OC)c1 (stereo unspecified) | 191 °C |
| COc1ccc(OS(=O)(=O)c2ccc(C)cc2)c(C(C)C)c1 | 85.1 °C |
| CCCCOCCOc1ccc(-c2ccc3c(c2)C=C(C(=O)O)CCN3C(=O)CNC(C)=O)cc1 | 196 to 201 °C |
| O=C(O)c1ccc(C(c2cc(F)ccc2F)S(=O)(=O)c2ccc(Cl)cc2)nc1 (stereo unspecified) | > 230 °C |
| COc1cc(C(=O)C(Br)Br)cc(OC)c1OC | 67 to 68 °C |
| Cc1nc(C)c(=O)n(CCO)c1C | 140 to 144 °C |
| CC(=O)OCC1OC(OCC(=O)c2cc(OCc3ccccc3)c(OCc3ccccc3)c(OCc3ccccc3)c2)C(OC(C)=O)C(OC(C)=O)C1OC(C)=O (stereo unspecified) | 156 to 158 °C |
| CCCOC1=C(c2ccccc2)C(CCC(=O)O)OC1=O (stereo unspecified) | 123 to 125 °C |
| Cc1cc(C)c2cccc(OCc3c(Cl)ccc(S(=O)(=O)N4CCC[C@H]4C(=O)NCc4cccc(C(N)=S)c4)c3Cl)c2n1 | 116 to 118 °C |
| ClCc1ccc(CN=C(Nc2ccccc2-c2ccccc2)Nc2ccccc2-c2ccccc2)cc1 | 87 to 91.5 °C |
| CCCN(CCC)c1nsc(NC(=O)NC)c1C#N | 179 to 180 °C |
| CC(C)(C)OC(=O)CS(=O)(=O)c1cccc(-c2nc(=O)c3ccccc3s2)n1 | 159 to 160 °C |
| CCC1(CBr)Cc2cc(OC)c3c(c2C(c2ccccc2)=N1)CC(CC)(CC)O3 (stereo unspecified) | 108 to 110 °C |
| N#Cc1ccc(N2C(=O)N(CCCCO)C3(CCCCC3)C2=O)cc1C(F)(F)F | 145 °C |
| Cc1sc2nc3ccc(C(N)=O)cn3c(=O)c2c1C | 361 to 363 °C |
| O=C(/C=C/c1ccccc1F)N1CCN(C(=O)c2cc(C(F)(F)F)cc(C(F)(F)F)c2)[C@H](Cc2c[nH]c3ccccc23)C1 | 110 to 114 °C |
| COc1ccc(CC(C)NCC(O)c2cccc(Cl)c2)cc1F (stereo unspecified) | 93 to 95 °C |
| CCCC[C@H](NC(=O)[C@H](CC(C)C)NC(=O)c1cc(F)cc(F)c1)C(=O)CSCc1ccco1 | 125 to 126 °C |
| NC(=O)c1nc2cnc3ccccc3c2[nH]1 | 326 to 328 °C |
| NS(=O)(=O)c1ccc(N2CCN(CC[C@@H]3OCCc4cc(Br)ccc43)CC2)c(Br)c1 | 206 to 208 °C |
| CN1CCN(C(=O)c2cnn(C)c2C(=O)Nc2ccn3nc(-c4cccc(F)c4)nc3c2)CC1 | 224 to 227 °C |
| CS(=O)(=O)OCCc1ccc([N+](=O)[O-])cc1COS(C)(=O)=O | 83 to 85 °C |

| Compound | melting point |
| --- | --- |
| CCOC(=O)c1ccc(-n2ccc(=O)cc2)cc1 | 178 to 180 °C |
| Cc1cc(-n2cncn2)cc(C#N)c1N | 231 to 233 °C |
| CN(C)C(=O)c1sc(C(c2ccc(Cl)cc2)c2c(Cl)cc(-n3ncc(=O)[nH]c3=O)cc2Cl)nc1-c1ccccc1 (stereo unspecified) | 150 °C |
| CC(=O)OC1CSC(Oc2cccc(-c3c(C)noc3C)c2)C(OC(C)=O)C1OC(C)=O (stereo unspecified) | 167 to 169 °C |
| Oc1c(Cl)cc(-c2ccco2)cc1Cl | 68 to 70 °C |
| O=C1CCCN1c1cccc(CO)c1 | 120 to 121 °C |
| C=CCN1CCC[C@H]1C(N)=O | 79 to 81 °C |
| Cc1cc(SC2=C(O)CC(CCc3ccoc3)(C(C)C)OC2=O)c(C(C)(C)C)cc1CO (stereo unspecified) | 62 to 70 °C |
| Cc1ccc(S(=O)(=O)N2CCCC2C(=O)NC(Cc2ccc(OCC(=O)OCc3ccccc3)cc2)C(=O)O)cc1 (stereo unspecified) | 79 to 81 °C |
| NNc1ccc(-c2nnn(Cc3ccccc3)n2)cc1 | 182 to 185 °C |
| CC(=O)OC1CCC2(C)C(=CCC3C4CCC(=O)C4(C)CC(OC(C)=O)C32)C1 (stereo unspecified) | 177 to 179 °C |
| CCOC(=O)[C@H](Cc1ccc(-c2c(C)n(C)c(=O)n(C)c2=O)cc1)NC(=O)c1c(Cl)cccc1Cl | 262 to 265 °C |
| CC1(C)OC[C@H](CCOc2c(C(C)(C)C)cc(SC(C)(C)Sc3cc(C(C)(C)C)c(O)c(C(C)(C)C)c3)cc2C(C)(C)C)O1 | 44 to 46 °C |
| CCOC(=O)[C@H](Cc1ccc(OC)cc1)NC(=O)C1(NC(=O)OC(C)(C)C)CCCC1 | 143 to 146 °C |
| COC1(c2ccccc2)N=CC(=O)N(C)c2ccc(Cl)cc21 (stereo unspecified) | 146 to 147 °C |
| Brc1cn(C(c2ccccc2)(c2ccccc2)c2ccccc2)nc1-c1ccccc1 | 181 to 183 °C |
| O=C(OCc1ccccc1)C1Cc2sccc2C(=O)N1Cc1ccccc1 (stereo unspecified) | 72 °C |
| N#Cc1nn(-c2c(Cl)cc(C(F)(F)F)cc2Cl)c(Cl)c1C=O | 145 to 146 °C |
| CCCc1cccc(C2(c3ccc(OC(F)(F)F)cc3)N=C(N)N3CCCN=C32)c1 (stereo unspecified) | 75 to 79 °C |
| N=C(N)NCCCCCC(=O)Oc1ccc2cc(C(=N)N)ccc2c1 | 136 °C |
| CCCCSc1nnc(N(C)C(=O)NC)s1 | 135 to 137 °C |
| CCCCCCCCCCCCCCCOCCSCCCO | 44 to 47 °C |
| COc1cccc(C2=C(C(=O)c3ccc(O)cc3)c3ccc(OC)cc3CC2)c1 | 197 to 198 °C |
| O[C@H]1C[C@H]2CN(C3=Nc4cc(Cl)ccc4Sc4ccccc43)CCN2C1 | 58 to 60 °C |

| Compound | melting point |
| --- | --- |
| O=[N+]([O-])c1ccc(-c2cc(C(F)(F)C(F)(F)C(F)(F)F)nc(-c3ccc(C(F)(F)F)cc3)n2)cc1 | 191 °C |
| CCC(=O)OC1=C(CCCCCCCCC[Si](C)(C)C)C(=O)c2ccccc2C1=O | 41 to 43 °C |
| COC(=O)c1cc(C(=O)NN)c2cc(Cc3ccc(F)cc3)cnc2c1O | 156 to 157 °C |
| Cc1c(C)c2c(c(C)c1OCc1ccccc1)CC(CCN1C(=O)c3ccccc3C1=O)O2 (stereo unspecified) | 108 to 110 °C |
| CN(C)C(=O)N1CC2(CCN(C(=O)Nc3nnc(-c4ccccc4)s3)CC2)c2ccccc21 | 267 °C |
| CN(CC1CCCCC1)C(=O)c1ccc2nonc2c1 | 71 to 72 °C |
| COc1ccc2cc(CCC(C)=O)cc(F)c2c1 | 69 to 70 °C |
| CN(C)C(=O)Nc1cc(Cl)ccc1O | 164 °C |
| CCn1cc(-c2ccccc2)nc(S(=O)(=O)Cc2ccc(Cl)cc2)c1=O | 146 to 148 °C |
| Cc1cc(N2C(=O)N(CCCCCCCCCSCCCC(F)(F)C(F)(F)F)C(C)(C)C2=O)ccc1NS(=O)(=O)NC(=O)OC(C)(C)C | 122 to 124 °C |
| COc1ccc2ncnc(N3CCCc4ccccc43)c2c1 | 98 °C |
| COc1cn2nc(Cl)ccc2n1 | 134 to 136 °C |
| CCn1cc(O)c(=O)c2ccccc21 | 180 to 182 °C |
| COCCc1nc2c(N)nc3cc(-c4cncc(CO)c4)ccc3c2n1CC(C)(C)O | 210 to 211 °C |
| O=C(O)CC(c1ccccc1)N1CC(NC(=O)C(=NO)c2ccccc2)C1=O (stereo unspecified) | 157 to 158 °C |
| CC(C)c1noc([C@]2(C)CC[C@H](NCC(=O)N3C[C@@H](F)C[C@H]3C#N)C2(C)C)n1 | 82 to 85 °C |
| COc1ccc(-n2cc(C(=O)O)c3nc4c(C)cccc4cc3c2=O)cc1OC | 297 to 298 °C |
| Cc1csc(C(=O)NN)c1N | 141 to 143 °C |
| O=c1c2c(Cc3ccccc3O)n[nH]c2c2cccnc2n1-c1ccccc1 | 278 to 280 °C |
| CCC(C)(C)c1ccc(OCCCCNC(=O)c2[nH]c3ccc(OC)cc3c2N)c(C(C)(C)CC)c1 | 145 to 146 °C |
| CCOC(=O)C1=C(NC(=O)Nc2ccc(Cl)c(C(=O)OCC)c2)CCC1 | 110 to 112 °C |
| CCOC(=O)c1nc(SC)n2c1c(=O)n(C)c1cc(C(F)(F)F)ccc12 | 202 to 204 °C |
| COCOc1c(NC(=O)NCc2cccnc2)cc(OC)cc1C(C)(C)C | 108 to 109 °C |
| C[C@@H](O[Si](C)(C)C(C)(C)C)[C@@H]1C(=O)N[C@@H]1S(=O)(=O)c1ccc([N+](=O)[O-])cc1[N+](=O)[O-] | 148 to 149 °C |

| Compound | melting point |
| --- | --- |
| COc1ccc(C[C@@H](C(=O)O)[C@@H](O)c2ccc(F)cc2)cc1 (racemic) | 96 to 98 °C |
| Fc1ccc2nc[nH]c(=S)c2c1 | 294 to 297 °C |
| N#CCCCCCC(=O)c1ccc(Cl)cc1 | 44 to 46 °C |
| Cc1cc(C(F)(F)F)cc(=O)n1C | 80 to 82 °C |
| COc1cc2c(cc1OCc1ccccc1)CCCN(Cc1cc(OC)c(OC)c(OC)c1)C2 | 44 to 46 °C |
| COC(=O)c1cccc(-c2ccncn2)c1 | 69 to 71 °C |
| CCOC(=O)C(Cc1c(OCC)noc1-c1ncn(C(c2ccccc2)(c2ccccc2)c2ccccc2)n1)(NC(C)=O)C(=O)OCC | 145 to 149 °C |
| COc1ccc2c(c1)CCC(CN1CCC3(CC1)C(=O)NCN3c1ccccc1)=C2 | 182 to 193 °C |
| O=[N+]([O-])c1cc(C(O)CN2CCN(C(c3ccccc3)c3ccccc3)CC2)ccc1Cl (stereo unspecified) | 163 °C |
| COc1cc(N)c(Cl)cc1C(=O)N[C@H]1CCN(CCNC(=O)N(C)C)C[C@H]1OC (relative stereo) | 206 °C |
| COc1ccc(C2=C(C#N)c3ccc(OC)cc3CC2)cc1 | 151 °C |
| CCCC(=O)c1cnc2c(OC)cccc2c1Nc1ccc(CO)cc1 | 187 to 189 °C |
| CCCOc1cc(Cl)ccc1-c1nc2ncn(C)c(=S)n2n1 | 160 to 162 °C |
| Cc1nc(-c2noc(Cc3ccccc3)n2)sc1C(=O)NCc1ccccc1 | 124 to 125 °C |
| CC(C)(C)c1nc(-c2n[nH]c(=O)o2)nc(C(C)(C)C)c1O | 230 to 232 °C |
| CCOC(=O)C1(Nc2nc(-c3ccc(Br)cc3)cs2)CC1 | 152 to 154 °C |
| C=CCNC(=O)C=Cc1cccc(F)c1 | 84.5 to 87 °C |
| Cc1c(NCc2ccccc2)c2c(c3c1C(c1ccc(C(C)C)cc1)CO3)CCC2 (stereo unspecified) | 95 to 96 °C |
| CCN(CC)CCc1c(C)[nH]c(C=C2C(=O)[NH+]([O-])N=C2c2cnccn2)c1C (stereo unspecified) | 192 °C |
| CCOCCOc1ccc(CCNC(=O)/C=C/c2cccs2)cc1S(=O)(=O)NC(=O)NC | 65 °C |
| COc1ccc(-c2ccc(NC(=O)C=Cc3ccc(CN4CCCC4)cc3)cc2)cc1 | 199 to 200 °C |
| COc1cn(Cc2ccc(OC)c(OC)c2)c(=O)o1 | 99.5 to 102 °C |
| N#CC1CN1C(=O)NC(=O)c1ccc2c(c1)CCCC2 (stereo unspecified) | 166 to 168 °C |
| Cc1ccc(NC(=O)Nc2ccc(Oc3cc(Cl)ncn3)cc2)cc1C(F)(F)F | 183 to 184 °C |
